Reference: patent US20240301409A1, “Chemically Modified Small Activating RNA” (RACTIGEN THERAPEUTICS, priority 2021, published 2024)

Columns and labels:
p21 gene [1] = assay: p21 mRNA expression by RT-qPCR in T24 cells; format: cell-based, human; conditions: 10 nM
Procedure: (§1) Ku-7-LG and T24 cells were transfected with the indicated saRNA at a final concentration of 10 nM for 3 days. After transfection, the RNA was extracted with the Qiagen RNeasy kit. After reverse transcription, the ABI 7500 fast real-time PCR system was used for qPCR amplification. The GAPDH gene was amplified as an internal reference. […] Dashed line indicates duplex Rag1-40 with no chemical modification in comparison, and the values above the line indicate stronger activity. The control was blank transfection without oligonucleotide. dsCon2 is transfected with a double-stranded scramble RNA. The value of the ordinate represents the mean±SD of 2 repeated treatments.
(§2) The control and dsCon2 were blank transfection and scramble dsRNA transfection, respectively. The values in the ordinate represent the mean±SD of 2 repeated treatments.
(§3) Human bladder cancer cells Ku-7-LG (ATCC), J82 (ATCC) and T24 (ATCC) were cultured in McCoy medium (Gibco) comprising 10% calf serum (Sigma-Aldrich) and 1% penicillin/Streptomycin (Gibco). Cells were cultured at 37° C. under 5% CO2. Ku-7-LG, J82 and T24 cells were plated into 12-well plates at 10×10^4 cells per well, transfected with the small RNA at a concentration of 10 nM (unless otherwise specified) for three days, using RNAiMax (Invitrogen, Carlsbad, CA) according to the manufacturer's instructions. Two replicate wells were set for each treatment.
(§4) After transfection, the medium was discarded and to each well 500 μl cell lysate was added and incubated at room temperature for 5 minutes. RNA was extracted with the Qiagen RNeasy kit, and after reverse transcription, qPCR analysis was performed on the ABI 7500 Fast Real-time PCR system (Applied Biosystems). Each sample was amplified in 3 replicate wells.
(§5) The PCR reaction conditions are: 95° C. for 30 seconds, 95° C. for 5 seconds, 60° C. for 30 seconds, and 40 cycles of amplification. The GAPDH gene was amplified as an internal reference at the same time. p21 was amplified with the p21F1/R1 primer pair, and the specific sequences of the amplification primers are shown in Table 1.
(§6) In order to calculate the expression value (Erel) of p21 (target gene) of a saRNA transfection sample relative to the control treatment, Formula 1 is used to input the Ct values of the target gene and the internal reference gene for calculation.
(§7) wherein, CtTm is the Ct value of the target gene from the control treatment sample; CtTs is the Ct value of the target gene from the saRNA treated sample; CtRm is the Ct value of the internal reference gene from the control treatment sample; and CtRs is the Ct value of the internal reference gene from the saRNA treated sample.
(§8) The main purpose of introducing chemical modifications to regulatory oligonucleotides of a gene is to improve their pharmaceutical properties, including enhancing in vivo stability and mitigating off-target effects (e.g., sequence-dependent targeting of unrelated genes, sequence-dependent or independent immune stimulation), while maintaining their gene regulatory capacity (gene knockdown or activation). To assess the effect of chemical modification on the RNAa activity of saRNA on the p21 gene, 10 nM unmodified (Rag1-40) and modified (Rag1-40-1 to Rag1-40-34) duplexes were transfected into Ku-7-LG and T24 cells, respectively. After 72 hours, the mRNA expression level of p21 was assessed by RT-qPCR. All duplexes induced p21 mRNA expression in all […] at least double that of the control.
(§9) In order to further evaluate the expression level of p21 mRNA after the different durations of treatment by the chemically modified saRNA duplexes, two saRNAs (RAG1-40-31 and RAG1-40-53) were randomly selected from the above chemically modified saRNA duplexes for detection. RAG1-40-31 and RAG1-40-53 were transfected into Ku-7-LG and T24 cells at a final concentration of 10 nM, for 1, 2, 3, 4, 7 and 9 days, respectively. Each treatment was set up in duplicate. […]

p21 gene [2] = assay: p21 mRNA expression by RT-qPCR in Ku-7-LG cells; format: cell-based, human; conditions: 10 nM
Procedure: as §1, §2, §3, §4, §5, §6, §7, §8, §9

Ku-7-LG cells = assay: Cell cycle detection by flow cytometry in Ku-7-LG cells; format: cell-based, human; conditions: 48 hours
Procedure: RAG1-40-31 and RAG1-40-53 were transfected into Ku-7-LG cells at the final concentrations of 0.1, 1, 10 and 50 nM, and the transfection duration was 48 hours. Two replicate wells were used for each treatment. After transfection, the cell cycle was analyzed by flow cytometry, and the collected data were analyzed by MotFit software.
After transfection, the supernatant was discarded to collect cells. To each well 500 μL PBS was added for one wash and then discarded. To each well 100 μL trypsin was further added. 900 μL medium was added to stop digestion before transferring to a 1.5 mL centrifuge tube. All the cells were collected through centrifugation (400 rcf, 5 min) and counted (2×10^5 cells/200 μL PBS). Cold 70% absolute ethanol was added before incubation overnight at 4° C. After washing twice with PBS, 200 μL Krishan buffer was added before incubation at 4° C. for 1 hour. After washing twice with PBS, the supernatant was discarded and 200 μL PBS was added for cell re-suspension, then the cells were transferred to a 96-well plate and analyzed by flow cytometer. The collected data were analyzed with MotFit software.
In order to study the mechanism of cellular proliferation suppression, change in cell cycle was analyzed using flow cytometry in this example. Randomly selected saRNAs RAG1-40-31 and RAG1-40-53 were transfected into Ku-7-LG cells at final concentrations of 0.1, 1, 10 and 50 nM, respectively, for 48 hours. Each treatment was set in duplicate. Cell cycle was detected and analyzed as described in the general protocol above.

RNase A = biological target: T1, RNase A (Bos taurus, UniProt P61823)
T1 sequence (P61823 27-150): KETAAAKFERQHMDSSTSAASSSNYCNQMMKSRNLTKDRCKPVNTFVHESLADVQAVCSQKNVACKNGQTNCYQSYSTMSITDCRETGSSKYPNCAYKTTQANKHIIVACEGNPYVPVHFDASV

RAG1-40-31: saRNA duplex: sense fCfCAACUCAUUCUCCAAG*U*C (SEQ ID NO 16); antisense U*A*fCfUfUGGAGAAfUGAGfUfUGG*fC*A (SEQ ID NO 12) (sense CCAACUCAUUCUCCAAGUC; antisense UACUUGGAGAAUGAGUUGGCA; 2'-F and phosphorothioate modifications; modified_base (1)..(2) (1,2)=2′-fluoro; modified_base (17)..(19) (17,18,19)=phosphorothioate (PS) backbone modification; modified_base (2)..(21) (2,3,19,20,21)=phosphorothioate (PS) backbone modification; modified_base (3)..(20) (3,4,5,12,16,17,20)=2′-fluoro)
increase of expression level of p21 mRNA compared with the control group (p21 gene [1]; 1 day): 2.1 fold | increase of expression level of p21 mRNA compared with the control group (p21 gene [1]; 2 days): 3.7 fold | increase of expression level of p21 mRNA compared with the control group (p21 gene [1]; 3 days): 4.7 fold | RNA activation activity (p21 mRNA), in words (p21 gene [1]; 72 hours, compared with unmodified Rag1-40 unless worded otherwise): reduced activity | increase of expression level of p21 mRNA compared with the control group (p21 gene [1]; 4 days): 3.3 fold | increase of expression level of p21 mRNA compared with the control group (p21 gene [1]; 7 days): 1.2 fold | increase of expression level of p21 mRNA compared with the control group (p21 gene [1]; 9 days): 1.3 fold | increase of expression level of p21 mRNA compared with the control group (p21 gene [2]; 1 day): 1.3 fold | increase of expression level of p21 mRNA compared with the control group (p21 gene [2]; 2 days): 11.4 fold | increase of expression level of p21 mRNA compared with the control group (p21 gene [2]; 3 days): 8.7 fold | increase of expression level of p21 mRNA compared with the control group (p21 gene [2]; 4 days): 6.1 fold | increase of expression level of p21 mRNA compared with the control group (p21 gene [2]; 7 days): 2.6 fold | increase of expression level of p21 mRNA compared with the control group (p21 gene [2]; 9 days): 3.8 fold | percentage of cells in DNA anaphase/mitosis (G2/M) (Ku-7-LG cells; 0.1 nM): 6% | percentage of cells in DNA replication phase (S phase) (Ku-7-LG cells; 0.1 nM): 32% | percentage of cells in prophase of DNA synthesis (G0/G1) (Ku-7-LG cells; 0.1 nM): 62% | percentage of cells in DNA anaphase/mitosis (G2/M) (Ku-7-LG cells; 1 nM): 9% | percentage of cells in DNA replication phase (S phase) (Ku-7-LG cells; 1 nM): 22% | percentage of cells in prophase of DNA synthesis (G0/G1) (Ku-7-LG cells; 1 nM): 69% | percentage of cells in DNA anaphase/mitosis (G2/M) (Ku-7-LG cells; 10 nM): 8% | percentage of cells in DNA replication phase (S phase) (Ku-7-LG cells; 10 nM): 11% | percentage of cells in prophase of DNA synthesis (G0/G1) (Ku-7-LG cells; 10 nM): 81% | percentage of cells in DNA anaphase/mitosis (G2/M) (Ku-7-LG cells; 50 nM): 13% | percentage of cells in DNA replication phase (S phase) (Ku-7-LG cells; 50 nM): 6% | percentage of cells in prophase of DNA synthesis (G0/G1) (Ku-7-LG cells; 50 nM): 81% | degradation of duplex at 96 hours (RNase A): little or no signs of degradation
